# Results from patent US7510851B2, “Compositions and methods for diagnosing and treating diabetes, insulin resistance and dyslipidemia” (Metabolex, Inc., priority 2001, dated 2009).
# Key:
# [1] = system: RGS2 mRNA; test: standard mouse micro-array expression in treated 3T3-L1 adipocytes; format: cell-based
# Description: (§1) For RGS2 we observed down-regulation as follows; pioglitazone 0.29 fold p<0.00009, rosiglitazone 0.25 fold p<0.00003, troglitazone, 0.27 fold p<0.00085. […] As such these regulations are reflective of endogenous PPAR activation of endogenous genes.
# [2] = system: pyruvate dehydrogenase kinase 4 mRNA (PDHK4); test: as above; format: cell-based
# Description: as §1
# [3] = system: PDHK4; test: Taqman PCR expression in treated 3T3-L1 adipocytes; format: cell-based, mouse; conditions: for up regulation of PDHK4, fold: Taqman PCR with SYBR green detection, verification of chip data; for PDHK4 fold change: Taqman, 3T3-L1 adipocytes treated with rosiglitazone, PGD2 or 9α,11β-PGF2α
# Description: (§2) Primers were designed against murine RGS2 and murine PDHK4 and the gene expression changes observed with the standard mouse chips were verified using Taqman PCR with SYBR green detection. Treatment of cells with pioglitazone, rosiglitazone or troglitazone caused a down regulation of RGS2 by 0.47 fold, 0.41 fold and 0.55 fold, respectively.
# (§3) Taqman primers were used to analyze the expression of RGS2 and PDHK4 in mouse 3T3-L1 adipocytes treated with rosiglitazone, PGD2 and 9α,11β-PGF2α. […] In contrast, the fold change with 9α,11β-PGF2α was 0.75. […] In contrast, the fold change with 9α,11β-PGF2α was 0.77.
# [4] = system: RGS2; test: Taqman PCR expression in treated 3T3-L1 adipocytes; format: cell-based, mouse; conditions: for down regulation of RGS2, fold: Taqman PCR with SYBR green detection, verification of chip data; for RGS2 fold change: Taqman, 3T3-L1 adipocytes treated with rosiglitazone, PGD2 or 9α,11β-PGF2α
# Description: as §2, §3
# [5] = target: T1, PPAR alpha (Homo sapiens, UniProt Q07869); test: cell-based PPAR ligand activity reporter assay (PPAR ligand-binding domain coupled to heterologous DNA binding domain); conditions: reporter gene expression
# T1 construct: expressed in transfected cells
# T1 sequence (Q07869 239-466 limits assumed): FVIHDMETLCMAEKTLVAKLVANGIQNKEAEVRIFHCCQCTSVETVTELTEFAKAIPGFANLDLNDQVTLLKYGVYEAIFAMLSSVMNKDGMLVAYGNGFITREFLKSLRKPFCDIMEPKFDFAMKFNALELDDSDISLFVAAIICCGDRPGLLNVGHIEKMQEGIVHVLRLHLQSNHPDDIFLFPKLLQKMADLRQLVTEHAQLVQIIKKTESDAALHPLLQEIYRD
# Procedure: (§4) Prostaglandin D2 and 9α,11β-PGF2α were assayed in cell-based assays (ex vivo) designed to detect PPAR ligand activity. The assay uses a recombinant protein consisting of a PPAR ligand-binding domain coupled to a heterologous DNA binding domain. See, e.g., Reginato, et. al., J. Biol. Chem. 273:32679 (1998). Binding of a ligand to the PPAR binding domain drives expression of a reporter gene.
# [6] = target: T2, PPAR gamma (Homo sapiens, UniProt P37231); test: as above; conditions: reporter gene expression
# T2 construct: expressed in transfected cells
# T2 sequence (P37231 238-503 limits assumed): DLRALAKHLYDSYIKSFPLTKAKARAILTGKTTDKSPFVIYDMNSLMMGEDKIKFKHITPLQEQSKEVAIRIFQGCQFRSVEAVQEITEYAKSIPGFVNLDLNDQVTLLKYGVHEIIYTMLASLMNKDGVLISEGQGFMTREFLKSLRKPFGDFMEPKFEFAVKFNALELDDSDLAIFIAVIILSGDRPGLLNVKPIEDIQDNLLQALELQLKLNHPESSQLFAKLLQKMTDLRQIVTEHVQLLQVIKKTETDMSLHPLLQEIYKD
# Procedure: as §4
# [7] = system: aP2 reporter gene (endogenous PPAR); test: cell-based natural PPAR-responsive promoter (aP2) reporter gene assay; design: species or system mouse
# Procedure: Prostaglandin D2 and 9α,11β-PGF2α were assayed in cell-based assays (ex vivo) designed to detect activation of a natural PPAR responsive promoter. The assay uses the promoter region of the mouse aP2 gene, which contains binding sites for PPARs (both PPAR alpha and gamma) coupled to a reporter gene. Binding of a ligand to endogenous PPAR results in activation of the aP2 reporter gene.
# [8] = system: mouse 3T3-L1 adipocytes; test: glucose transport in 3T3-L1 adipocytes; format: cell-based; conditions: treatment for 40 hours
# [9] = system: 3T3-L1 adipocytes; test: insulin-stimulated glucose transport (3H-2-deoxyglucose) in adenovirus-infected 3T3-L1 adipocytes; format: cell-based, mouse; conditions: cells infected with control virus, 4 μM PGD2 for 20 hours
# Procedure: 3T3-L1 adipocytes were infected with either control adenovirus or recombinant adenovirus encoding the four human AKR1C isoforms and incubated 20 hours to allow for protein expression. Cells were then treated 20 hours with 4 μM PGD2 and glucose transport in the absence and presence of insulin was measured.
structure (smiles),measurement,setting,value
Cc1c(C)c2c(c(C)c1O)CCC(C)(COc1ccc(CC3SC(=O)NC3=O)cc1)O2 (stereo not drawn) [troglitazone],"RGS2 mRNA down-regulation, fold",[1],0.27 fold
same,"PDHK4 mRNA up regulation, fold",[2],3.2 fold
same,"up regulation of PDHK4, fold",[3],5.5 fold
same,"down regulation of RGS2, fold",[4],0.55 fold
"CCCCC[C@H](O)/C=C/[C@@H]1[C@@H](C/C=C\CCCC(=O)O)[C@@H](O)C[C@@H]1O [9α,11β-PGF2α, 9α,11β-prostaglandin F2α]",activation of PPAR alpha,[5],without effect
same,activation of PPAR gamma,[6],without effect
same,activation of the aP2 reporter gene,[7],without effect
same,PDHK4 fold change,[3],0.77 fold change
same,RGS2 fold change,[4],0.75 fold change
same,effect on glucose transport,[8],no effect on glucose transport
CN(CCOc1ccc(CC2SC(=O)NC2=O)cc1)c1ccccn1 (stereo not drawn) [rosiglitazone],"RGS2 mRNA down-regulation, fold",[1],0.25 fold
same,"PDHK4 mRNA up regulation, fold",[2],3.16 fold
same,"up regulation of PDHK4, fold",[3],5.45 fold
same,PDHK4 fold change,[3],3.73 fold change
same,"down regulation of RGS2, fold",[4],0.41 fold
same,RGS2 fold change,[4],0.20 fold change
CCc1ccc(CCOc2ccc(CC3SC(=O)NC3=O)cc2)nc1 (stereo not drawn) [pioglitazone],"RGS2 mRNA down-regulation, fold",[1],0.29 fold
same,"PDHK4 mRNA up regulation, fold",[2],3.13 fold
same,"up regulation of PDHK4, fold",[3],4.9 fold
same,"down regulation of RGS2, fold",[4],0.47 fold
"CCCCC[C@H](O)/C=C/[C@H]1C(=O)C[C@H](O)[C@@H]1C/C=C\CCCC(=O)O [PGD2, prostaglandin D2]",activation of PPAR alpha,[5],Significant activation
same,activation of PPAR gamma,[6],Significant activation
same,activation of the aP2 reporter gene,[7],Significant activation
same,PDHK4 fold change,[3],2.39 fold change
same,RGS2 fold change,[4],0.29 fold change
same,effect on glucose transport,[8],enhances glucose transport to similar levels as those observed with the PPAR ligand rosiglitazone
same,effect on insulin-stimulated glucose transport,[9],enhances insulin-stimulated glucose transport
